Assay results: US20190060261A1, “ACTIVE COMBINATIONS OF PERILLIC ACID AND ACTIVITY ENHANCING SUBSTANCES” (B.R.A.I.N BIOTECHNOLOGY RESEARCH AND INFORMATION NETWORK AG, priority 2016, published 2019)
≈ marks a conversion by molar mass, not a printed value.

Legend:
[1] = tested on: Escherichia coli ATCC 8739; experiment: Minimal inhibition concentration (MIC), microdilution method adapted from DIN EN ISO 20776-1:2006; format: cell-based; details: Escherichia coli, ATCC8739; Mueller-Hinton II Bouillon, 25 mM MES-buffer, 37° C., no growth after 24 h and 72 h; read-out: MIC [A to D] Escherichia coli
Text: (§1) The antimicrobial activity of different substances was examined and compared to perillic acid in vitro using the microdilution method adapted from DIN EN ISO 20776-1:2006. Besides perillic acid and its sodium salt, other organic acids like levulinic acid, p-anisic acid, benzoic acid and sorbic acid as well as alkane-1,2-diols such as hexane-1,2-diol, octane-1,2-diol and decane-1,2-diol were studied. Additionally, the commonly used preservatives 2-phenoxyethanol, 2-phenylethanol and benzyl alcohol were investigated.
(§2) All experiments were done in 96-well plates in a final volume of 200 μL. Test solutions of the investigated compounds were prepared in 25 mM buffered water. The procedure was conducted as following: 4 μL of the particular stock solution were mixed with 196 μL culture medium containing a defined inoculum of the respective target strain. Sterile controls (not inoculated) and growth controls (buffer instead of compound added) were performed. All compound concentrations were tested in triplicate for several times. The following contamination germs were examined: Escherichia coli ATCC 8739, Pseudomonas aeruginosa ATCC 9027, Stapyhlococcus aureus ATCC®6538, Bacillus subtilis subsp. spizizenii ATCC®6633, Candida albicans ATCC®10231 and Aspergillus brasiliensis ATCC®16404. The strains were cultivated either in Mueller-Hinton II Bouillon (Escherichia coli, Pseudomonas aeruginosa, Staphylococcus aureus), in yeast peptone dextrose (Bacillus subtilis, Candida albicans) or in potato dextrose medium (Aspergillus brasiliensis). All culture media were buffered with 25 mM MES-buffer. For compound testing, the plates were incubated at 37° C. for Escherichia coli, Pseudomonas aeruginosa and Staphylococcus aureus, at 28° C. for Bacillus subtilis and Candida albicans, and at 25° C. for Aspergillus brasiliensis. Plates were evaluated after 24 h and 72 h, respectively. The minimal inhibitory concentration (MIC) is defined as the concentration where no microbial growth was observed after 24 h and 72 h incubation at the specified temperature.
(§3) MIC-values are given according to the following letter code.

[2] = tested on: Pseudomonas aeruginosa ATCC®9027; experiment: Conservation efficacy test according to DIN EN ISO 11930 in cosmetic formulation; format: cell-based; details: cosmetic formulation (oil-water-emulsion), day 0 to day 28
Experimental: (§4) The composition of the formulations was in general as follows (ingredient amounts according to the FDA-code):
(§5) In order to confirm the activity against Gram-positive and Gram-negative bacteria, yeasts and moulds, conservation efficacy tests were performed according to DIN EN ISO 11930. The following classical contamination germs were examined: Escherichia coli (Ec in FIGS. 1 and 2) ATCC®8739, Pseudomonas aeruginosa (Pa in FIGS. 1 and 2) ATCC®9027, Stapyhlococcus aureus (Sa in FIGS. 1 and 2) ATCC®6538, Candida albicans (Ca in FIGS. 1 and 2) ATCC®10231 and Aspergillus brasiliensis (Ab in FIGS. 1 and 2) ATCC®16404. Media composition, incubation conditions and dilution procedures were all conducted according to the guidelines.
(§6) Data are presented as line graphs. […] The tested contamination germs are identified by different symbols as indicated in the diagrams with the following abbreviations: […]

[3] = tested on: Candida albicans ATCC®10231; experiment: as above; format: cell-based; details: cosmetic formulation (oil-water-emulsion), day 0 to day 28
Experimental: as §4, §5, §6

[4] = tested on: Candida albicans ATCC®10231; experiment: Minimal inhibition concentration (MIC), microdilution method; format: cell-based; details: yeast peptone dextrose, 25 mM MES-buffer, 28° C., no growth after 24 h and 72 h
Text: as §1, §2, §3

[5] = tested on: Pseudomonas aeruginosa ATCC 9027; experiment: as above; format: cell-based; details: Pseudomonas aeruginosa, ATCC9027; Mueller-Hinton II Bouillon, 25 mM MES-buffer, 37° C., no growth after 24 h and 72 h; read-out: MIC [A to D] Pseudomonas aeruginosa
Text: as §1, §2, §3

[6] = tested on: Bacillus subtilis subsp. spizizenii ATCC®6633; experiment: as above; format: cell-based; details: Bacillus subtilis, ATCC6633; yeast peptone dextrose, 25 mM MES-buffer, 28° C., no growth after 24 h and 72 h; read-out: MIC [A to D] Bacillus subtilis
Text: as §1, §2, §3

[7] = tested on: Aspergillus brasiliensis ATCC®16404; experiment: as above; format: cell-based; details: Aspergillus brasiliensis, ATCC16404; potato dextrose medium, 25 mM MES-buffer, 25° C., no growth after 24 h and 72 h; read-out: MIC [A to D] Aspergillus brasiliensis
Text: as §1, §2, §3

Escherichia coli = experiment: Combination of substances with perillic acid: reduction of the MIC of perillic acid; format: cell-based; details: test compound combined with perillic acid; experiments as in Example 1
Experimental: as §2
(§7) Activity of perillic acid was comparably low against Gram-negative bacteria. It was thus tested whether the respective MIC could be reduced by combination of perillic acid with selected substances.
(§8) Experiments were performed as described for Example 1 above. A reduction factor was determined, expressing the reduction of the MIC of perillic acid that was achievable by combination with the combination partner. For example, a reduction factor of 2 means that the MIC of perillic acid was reduced by a factor of 2 by combination of perillic acid with the respective activity enhancing substance.

Pseudomonas aeruginosa = experiment: as above; format: cell-based; details: test compound combined with perillic acid; experiments as in Example 1
Experimental: as §2, §7, §8

[8] = tested on: Stapyhlococcus aureus ATCC®6538; experiment: Minimal inhibition concentration (MIC), microdilution method; format: cell-based, Staphylococcus aureus; details: Mueller-Hinton II Bouillon, 25 mM MES-buffer, 37° C., no growth after 24 h and 72 h
Text: as §1, §2, §3

[9] = tested on: Escherichia coli ATCC®8739; experiment: Conservation efficacy test according to DIN EN ISO 11930 in cosmetic formulation; format: cell-based; details: cosmetic formulation (oil-water-emulsion), day 0 to day 28
Experimental: as §4, §5, §6

[10] = tested on: Aspergillus brasiliensis ATCC®16404; experiment: as above; format: cell-based; details: cosmetic formulation (oil-water-emulsion), day 0 to day 28
Experimental: as §4, §5, §6

[11] = tested on: Stapyhlococcus aureus ATCC®6538; experiment: as above; format: cell-based, Staphylococcus aureus; details: cosmetic formulation (oil-water-emulsion), day 0 to day 28
Experimental: as §4, §5, §6

MIC [1] [µg/mL]	MIC [A to D] Candida albicans [4]	MIC [5] [µg/mL]	MIC [6] [µg/mL]	MIC [7] [µg/mL]	Reduction factor (reduction of the MIC of perillic acid by combination with the test compound) Escherichia coli (Escherichia coli)	Reduction factor (reduction of the MIC of perillic acid by combination with the test compound) Pseudomonas aeruginosa (Pseudomonas aeruginosa)	MIC [A to D] Staphylococcus aureus [8]	SMILES	criteria for an adequate conservation against P. aeruginosa [2]	criteria for an adequate conservation against C. albicans [3]	criteria for an adequate conservation against E. coli [9]	criteria for an adequate conservation against A. brasiliensis [10]	criteria for an adequate conservation against S. aureus [11]
5000 to 10000 (≈ 34.2 to 68.4 mM)	A (MIC>1% (w/v))	1000 to 5000 (≈ 6.84 to 34.2 mM)	1000 to 5000 (≈ 6.84 to 34.2 mM)	1000 to 5000 (≈ 6.84 to 34.2 mM)	2000	2000	A (MIC>1% (w/v))	CCCCCCC(O)CO (centres unmarked) [Octane-1,2-diol]	does not fulfill the criteria	does not fulfill the criteria			
								C=C(C)[C@@H]1CC=C(C(=O)O)CC1 [Perillic acid]		fulfills the criteria	fulfills the criteria	fulfills the criteria	fulfills the criteria
